Where two headings read alike, the source gives them in different places.
Biological target: T1, humane Tyrosinase (Homo sapiens, UniProt P14679)
T1 sequence (P14679 19-529): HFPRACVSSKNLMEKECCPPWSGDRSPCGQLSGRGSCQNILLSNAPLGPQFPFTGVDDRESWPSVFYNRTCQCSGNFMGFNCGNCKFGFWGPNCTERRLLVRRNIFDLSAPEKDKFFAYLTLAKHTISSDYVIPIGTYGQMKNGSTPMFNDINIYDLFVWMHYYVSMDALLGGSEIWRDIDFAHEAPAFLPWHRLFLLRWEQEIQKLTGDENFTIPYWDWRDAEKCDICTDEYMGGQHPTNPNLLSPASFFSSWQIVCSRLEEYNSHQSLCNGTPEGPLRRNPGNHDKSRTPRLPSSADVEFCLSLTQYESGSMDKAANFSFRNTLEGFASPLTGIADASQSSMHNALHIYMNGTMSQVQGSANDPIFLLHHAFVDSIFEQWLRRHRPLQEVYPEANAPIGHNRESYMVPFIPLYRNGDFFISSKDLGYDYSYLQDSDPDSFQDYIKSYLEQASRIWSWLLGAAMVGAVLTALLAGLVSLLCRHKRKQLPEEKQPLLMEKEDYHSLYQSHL
Test: Enzyme test: conversion of L-DOPA to L-dopaquinone by human tyrosinase, MBTH detection, absorption at 490 nm
Format: biochemical
Conditions: read-out: Inhibition (% der Kontrolle)

[1] = Konzentration 10 µg/mL, substrate L-DOPA

Excerpt: Die Wirksamkeit der Thiazole wurde mit einem Enzymtest belegt, in der Umsatz von L-DOPA zu L-Dopachinon durch eine humane Tyrosinase gemessen wurde.

| Structure (SMILES) | inhibition at 10 µg/mL [1] | inhibition at 10 µg/mL |
| --- | --- | --- |
| CC(C)(C)c1ccc(C(=O)Nc2nc(-c3ccc(O)cc3O)cs2)cc1 [4-(tert-butyl)-N-(4-(2,4-dihydroxyphenyl)thiazol-2-yl)benzamid] | 27% | – |
| CC(=O)c1ccc(C(=O)Nc2nc(-c3ccc(O)cc3O)cs2)cc1 [4-acetyl-N-(4-(2,4-dihydroxyphenyl)thiazol-2-yl)benzamid] | 92% | – |
| N#Cc1ccc(C(=O)Nc2nc(-c3ccc(O)cc3O)cs2)cc1 [4-cyano-N-(4-(2,4-dihydroxyphenyl)thiazol-2-yl)benzamid] | 96% | – |
| CC(C)(O)c1ccc(C(=O)Nc2nc(-c3ccc(O)cc3O)cs2)cc1 [N-(4-(2,4-dihydroxyphenyl)thiazol-2-yl)-4-(2-hydroxypropan-2-yl)benzamid] | – | 96% |
| O=C(Nc1nc(-c2ccc(O)cc2O)cs1)c1ccc(CO)cc1 [N-(4-(2,4-dihydroxyphenyl)thiazol-2-yl)-4-(hydroxymethyl)benzamid] | 99% | – |
| O=C(Nc1nc(-c2ccc(O)cc2O)cs1)c1ccc(CO)nc1 [N-(4-(2,4-dihydroxyphenyl)thiazol-2-yl)-6-(hydroxymethyl)nicotinamid] | 98% | – |
| O=C(Nc1nc(-c2ccc(O)cc2O)cs1)c1ccccc1 [N-(4-(2,4-dihydroxyphenyl)thiazol-2-yl)benzamid] | 98% | – |
| O=C(Nc1nc(-c2ccc(O)cc2O)cs1)c1ccc2c(c1)OCO2 [N-(4-(2,4-dihydroxyphenyl)thiazol-2-yl)benzo[d][1,3]dioxole-5-carboxamide] | 92% | – |
| O=C(Nc1nc(-c2ccc(O)cc2O)cs1)c1ccccn1 [N-(4-(2,4-dihydroxyphenyl)thiazol-2-yl)picolinamid] | 82% | – |
| c1ccc(Nc2nc(-c3ccncc3)cs2)nc1 [N-(pyridin-2-yl)-4-(pyridin-4-yl)thiazol-2-amin, reference compound] | 16% | – |
| C=CCN(C1=NC(C)(C)C(=C)S1)c1ccc(C)cc1C [N-allyl-N-(2,4-dimethylphenyl)-4,4-dimethyl-5-methylene-4,5-dihydrothiazol-2-amin, reference compound] | 13% | – |
| CN(c1ccccc1)c1nc(-c2ccncc2)cs1 [N-methyl-N-phenyl-4-(pyridin-4-yl)thiazol-2-amin, reference compound] | 13% | – |

— patent EP2758383B1, “AROMATIC AMIDOTHIAZOLES, COSMETIC AND DERMATOLOGICAL PREPARATIONS CONTAINING THEM, AND THEIR USE FOR THE TREATMENT AND PROPHYLAXIS OF UNWANTED PIGMENTATION OF THE SKIN” (priority 2011, dated 2013)
